From patent US20250129021A1, “SMALL MOLECULE PROTEIN SYNTHESIS MODULATORS” (Interdict Bio, Inc., priority 2023, published 2025)
pIC50: −log10 of the molar value.

Tests used:
Type in all cases: biochemical
MCL-1 = test: In vitro transcription-translation (IVTT) assay, MCL-1 reporter; details: IVTT, HeLa S3 lysate, 2 hrs at 30° C.; read-out: MCL1 IC50
How it was run: (§1)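 Reporter: mCherry, P2A, then 3×FLAG-target peptide-sfGFP fusion, IRES-initiated; HeLa S3 lysate IVTT; cpd dilutions 30 μM−0.1 μM half-log in 100% DMSO (dilution-plate conc); DNA added last; 2 h, 30° C; PBS quench.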

MYC = test: In vitro transcription-translation (IVTT) assay, MYC reporter; details: IVTT assay, HeLa S3 lysate, MYC reporter, normalized sfGFP/mCherry ratio; half-log dilutions 30 μM-0.1 μM, 2 hrs at 30° C.
How it was run: as §1

CCNTB1 = test: In vitro transcription-translation (IVTT) assay, CCNTB1 reporter; details: HeLa S3 lysate, 2 hrs at 30° C.
How it was run: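 IC50 fitted from the sfGFP/mCherry fluorescence ratio, normalized to no-drug control after no-DNA background subtraction. Reactions ran 2 h at 30° C in HeLa S3 cell lysate with reporter plasmid DNA and half-log compound titrations (30 μM−0.1 μM, in DMSO).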

CCND1 = test: In vitro transcription-translation (IVTT) assay, CCND1 reporter; details: IVTT, HeLa S3 lysate, 2 hrs at 30° C.
How it was run: as §1

| pIC50 (MCL-1) | pIC50 (CCNTB1) | pIC50 (CCND1) | Compound | pIC50 (MYC) |
| --- | --- | --- | --- | --- |
| > 5.00 | > 5.00 | > 5.00 | COc1ccc(C[C@H]2NC[C@H](O)[C@H]2OC(=O)NCc2ccc(C(N)=O)cc2)cc1 [V188296, (2R,3S,4S)-4-hydroxy-2-[(4-methoxyphenyl)methyl]pyrrolidin-3-yl N-[(4-carbamoylphenyl)methyl]carbamate] | > 5.00 |
| > 5.00 | > 5.00 | > 5.00 | COc1ccc(C[C@H]2NC[C@H](O)[C@H]2OC(=O)NCc2ccc(N)nn2)cc1 [V188311, (2R,3S,4S)-4-hydroxy-2-[(4-methoxyphenyl)methyl]pyrrolidin-3-yl N-[(6-aminopyridazine-3-yl)methyl]carbamate] | > 5.00 |
| > 5.00 | > 5.00 | > 5.00 | COc1ccc(C[C@H]2NC[C@H](O)[C@H]2OC(=O)NCc2ccccc2Cl)cc1 [V191915, (2R,3S,4S)-4-hydroxy-2-[(4-methoxyphenyl)methyl]pyrrolidin-3-yl N-[(2-chlorophenyl)methyl]carbamate] | > 5.00 |
| > 5.00 | > 5.00 | > 5.00 | COc1ccc(C[C@H]2NC[C@H](O)[C@H]2OC(=O)NCc2ccnc3c2CCN3)cc1 [V188360, (2R,3S,4S)-4-hydroxy-2-[(4-methoxyphenyl)methyl]pyrrolidin-3-yl N-{1H,2H,3H-pyrrolo[2,3-b]pyridin-4-ylmethyl}carbamate] | > 5.00 |
| > 5.00 | > 5.00 | > 5.00 | COc1ccc(C[C@H]2NC[C@H](O)[C@H]2OC(=O)NCc2cnoc2)cc1 [V188383, (2R,3S,4S)-4-hydroxy-2-[(4-methoxyphenyl)methyl]pyrrolidin-3-yl N-(1,2-oxazol-4-ylmethyl)carbamate] | > 5.00 |
| 4.52 to 4.70 | 4.70 to 5.00 | < 4.52 | COc1ccc(C[C@H]2NC[C@H](O)[C@H]2OC(=O)NCc2c(F)cccc2F)cc1 [V190521, (2R,3S,4S)-4-hydroxy-2-[(4-methoxyphenyl)methyl]pyrrolidin-3-yl N-[(2,6-difluorophenyl)methyl]carbamate] | 4.52 to 4.70 |
| > 5.00 | > 5.00 | > 5.00 | COc1ccc(C[C@H]2NC[C@H](O)[C@H]2OC(=O)NCc2ccc(Cl)s2)cc1 [V188373, (2R,3S,4S)-4-hydroxy-2-[(4-methoxyphenyl)methyl]pyrrolidin-3-yl N-[(5-chlorothiophen-2-yl)methyl]carbamate] | > 5.00 |
| > 5.00 | > 5.00 | > 5.00 | COc1ccc(C[C@H]2NC[C@H](O)[C@H]2OC(=O)NCc2ccc(CN)cc2)cc1 [V188322, (2R,3S,4S)-4-hydroxy-2-[(4-methoxyphenyl)methyl]pyrrolidin-3-yl N-{[4-(aminomethyl)phenyl]methyl}carbamate] | > 5.00 |
| > 5.00 | > 5.00 | > 5.00 | COc1ccc(C[C@H]2NC[C@H](O)[C@H]2OC(=O)NCc2ccc(F)c(F)c2)cc1 [V190408, (2R,3S,4S)-4-hydroxy-2-[(4-methoxyphenyl)methyl]pyrrolidin-3-yl N-[(3,4-difluorophenyl)methyl]carbamate] | > 5.00 |

Continued, compound first:

| Compound | pIC50 (MCL-1) | pIC50 (CCNTB1) | pIC50 (CCND1) | pIC50 (MYC) |
| --- | --- | --- | --- | --- |
| COc1ccc(C[C@H]2NC[C@H](O)[C@H]2OC(=O)NCc2cc(F)cc(F)c2)cc1 [V188380, (2R,3S,4S)-4-hydroxy-2-[(4-methoxyphenyl)methyl]pyrrolidin-3-yl N-[(3,5-difluorophenyl)methyl]carbamate] | > 5.00 | > 5.00 | > 5.00 | > 5.00 |
| COc1ccc(C[C@H]2NC[C@H](O)[C@H]2OC(=O)NCC2CCC2)cc1 [V188318, (2R,3S,4S)-4-hydroxy-2-[(4-methoxyphenyl)methyl]pyrrolidin-3-yl N-(cyclobutylmethyl)carbamate] | > 5.00 | > 5.00 | > 5.00 | > 5.00 |
| COc1ccc(C[C@H]2NC[C@H](O)[C@H]2OC(=O)NCc2ccc(Cn3cccn3)cc2)cc1 [V188314, (2R,3S,4S)-4-hydroxy-2-[(4-methoxyphenyl)methyl]pyrrolidin-3-yl N-{[4-(pyrazol-1-ylmethyl)phenyl]methyl}carbamate] | > 5.00 | > 5.00 | > 5.00 | > 5.00 |
| COc1ccc(C[C@H]2NC[C@H](O)[C@H]2OC(=O)NCC(F)(F)c2ccccc2)cc1 [V188165, (2R,3S,4S)-4-hydroxy-2-[(4-methoxyphenyl)methyl]pyrrolidin-3-yl N-(2,2-difluoro-2-phenylethyl)carbamate] | 4.52 to 4.70 | > 5.00 | 4.70 to 5.00 | 4.52 to 4.70 |
| O=C(NCc1cccc(F)c1)O[C@@H]1[C@@H](O)CN[C@@H]1Cc1ccc(C2CC2)cc1 [V190518, (2R,3S,4S)-2-[(4-cyclopropylphenyl)methyl]-4-hydroxypyrrolidin-3-yl N-[(3-fluorophenyl)methyl]carbamate] | 4.70 to 5.00 | > 5.00 | 4.52 to 4.70 | 4.70 to 5.00 |
| O=C(NCC[C@@H]1CCCN1)O[C@@H]1[C@@H](O)CN[C@@H]1Cc1ccc(-c2ccc(C(F)(F)F)cc2)cc1 [V191963, (2R,3S,4S)-4-hydroxy-2-{[4′-(trifluoromethyl)-[1,1′-biphenyl]-4-yl]methyl}pyrrolidin-3-yl N-{2-[(2S)-pyrrolidin-2-yl]ethyl}carbamate] | 4.52 to 4.70 | 4.52 to 4.70 | < 4.52 | < 4.52 |
| COc1ccc(C[C@H]2NC[C@H](O)[C@H]2OC(=O)NCC[C@@H]2CCCCN2)cc1 [V191902, (2R,3S,4S)-4-hydroxy-2-[(4-methoxyphenyl)methyl]pyrrolidin-3-yl N-{2-[(2S)-piperidin-2-yl]ethyl}carbamate] | < 4.52 | 4.70 to 5.00 | < 4.52 | 4.70 to 5.00 |
| O=C(NCc1cccc(F)c1)O[C@@H]1[C@@H](O)CN[C@@H]1Cc1ccc(-c2ncco2)cc1 [V190514, (2R,3S,4S)-4-hydroxy-2-{[4-(1,3-oxazol-2-yl)phenyl]methyl}pyrrolidin-3-yl N-[(3-fluorophenyl)methyl]carbamate] | > 5.00 | > 5.00 | > 5.00 | > 5.00 |
| O=C(NCc1cccc(F)c1)O[C@@H]1[C@@H](O)CN[C@@H]1Cc1ccc(OC(F)(F)F)cc1 [V190509, (2R,3S,4S)-4-hydroxy-2-(4-(trifluoromethoxy)benzyl)pyrrolidin-3-yl (3-fluorobenzyl)carbamate] | < 4.52 | 4.52 to 4.70 | < 4.52 | < 4.52 |
| O=C(NCc1cccc(F)c1)O[C@@H]1[C@@H](O)CN[C@@H]1Cc1ccc(-c2cncs2)cc1 [V190546, (2R,3S,4S)-4-hydroxy-2-{[4-(1,3-thiazol-5-yl)phenyl]methyl}pyrrolidin-3-yl N-[(3-fluorophenyl)methyl]carbamate] | > 5.00 | > 5.00 | > 5.00 | > 5.00 |
| COc1ccc(C[C@H]2NC[C@H](O)[C@H]2OC(=O)NCc2ccc3cnccc3c2)cc1 [V188348, (2R,3S,4S)-4-hydroxy-2-[(4-methoxyphenyl)methyl]pyrrolidin-3-yl N-(isoquinolin-6-ylmethyl)carbamate] | > 5.00 | > 5.00 | > 5.00 | > 5.00 |
| COc1ccc(C[C@H]2NC[C@H](O)[C@H]2OC(=O)NCc2ccc3c(c2)CCNC3)cc1 [V188345, (2R,3S,4S)-4-hydroxy-2-[(4-methoxyphenyl)methyl]pyrrolidin-3-yl N-(1,2,3,4-tetrahydroisoquinolin-6-ylmethyl)carbamate] | > 5.00 | > 5.00 | > 5.00 | > 5.00 |
| COc1ccc(C[C@H]2NC[C@H](O)[C@H]2OC(=O)NCC(=O)N[C@@H](C)C(=O)O)cc1 [V188019, (2S)-2-{2-[({[(2R,3S,4S)-4-hydroxy-2-[(4-methoxyphenyl)methyl]pyrrolidin-3-yl]oxy}carbonyl)amino]acetamido}propanoic acid] | < 4.52 | < 4.52 | < 4.52 | 4.70 to 5.00 |
| COc1ccc(C[C@H]2NC[C@H](O)[C@H]2OC(=O)NCCC(C)(C)O)cc1 [V190413, (2R,3S,4S)-4-hydroxy-2-[(4-methoxyphenyl)methyl]pyrrolidin-3-yl N-(3-hydroxy-3-methylbutyl)carbamate] | 4.70 to 5.00 | > 5.00 | 4.52 to 4.70 | 4.70 to 5.00 |
